PubChem BioAssay AID2060889 (Molecular Pharmacology Branch, DTP, NCI, 2025)

Tested on: LG0567-F671-PDC complex spheroids viability
Experiment: Anticancer human tumor LG0567-F671-PDC patient-derived lung adenocarcinoma cell line growth inhibition [RAS]
Settings: for IC50: curve of first compound; for viability, T/C: stronger effect = lower value
Method in brief: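 Agents were tested in combination matrices in half-log decrements from a top concentration at or near clinical Cmax (10 microM if undetermined). Targets were multi-cell spheroids of tumour lines plus HUVEC and MSC stromal cells.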
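Further: spheroids exposed to compound for seven days before readout.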
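Wherever IC50 is given: luminescence signal used as a proxy for viable cells.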

`CC1(C)CCC(Nc2ncc(C(F)(F)F)c(-c3c[nH]c4c(P(C)(C)=O)c(C#N)ccc34)n2)CN1` (configuration not stated) + C#Cc1c(F)ccc2cc(O)cc(-c3ncc4c(N5CC6CCC(C5)N6)nc(OCC56CCCN5CC(F)C6)nc4c3F)c12 was tested. Which IC50 (second compound 0.0316 µM) did it give?
Its IC50 is 4.36 nM.

And the IC50 (second compound 0.1 µM)?
Its IC50 is less than 0.949 nM.

And the IC50 (second compound 0.316 µM)?
The IC50 was less than 0.949 nM.

And the IC50 (second compound 1 µM)?
Its IC50 is less than 0.949 nM.

What about the IC50 (second compound 3.16 µM) of the same compound?
Its IC50 is less than 0.949 nM.

And the IC50 (second compound 10 µM)?
The IC50 was less than 0.949 nM.

And the viability, T/C (second compound 0.0316 µM, first compound 0.000949 µM)?
Its viability, T/C is 61.2%.

And the viability, T/C (second compound 0.0316 µM, first compound 0.003 µM)?
Its viability, T/C is 50.8%.

What about the viability, T/C (second compound 0.0316 µM, first compound 0.00949 µM) of the same compound?
The viability, T/C was 48.4%.

And the viability, T/C (second compound 0.0316 µM, first compound 0.03 µM)?
Its viability, T/C is 45.5%.

And the viability, T/C (second compound 0.0316 µM, first compound 0.0949 µM)?
Its viability, T/C is 43.3%.

What about the viability, T/C (second compound 0.0316 µM, first compound 0.3 µM) of the same compound?
Its viability, T/C is 46%.

And the viability, T/C (second compound 0.1 µM, first compound 0.000949 µM)?
Its viability, T/C is 54.5%.

And the viability, T/C (second compound 0.1 µM, first compound 0.003 µM)?
The viability, T/C was 45.1%.

And the viability, T/C (second compound 0.1 µM, first compound 0.00949 µM)?
The viability, T/C was 42.7%.

And the viability, T/C (second compound 0.1 µM, first compound 0.03 µM)?
Its viability, T/C is 45.3%.

What about the viability, T/C (second compound 0.1 µM, first compound 0.0949 µM) of the same compound?
The viability, T/C was 45.2%.

And the viability, T/C (second compound 0.1 µM, first compound 0.3 µM)?
The viability, T/C was 44.4%.

What about the viability, T/C (second compound 0.316 µM, first compound 0.000949 µM) of the same compound?
Its viability, T/C is 40.9%.

And the viability, T/C (second compound 0.316 µM, first compound 0.003 µM)?
The viability, T/C was 34.8%.

What about the viability, T/C (second compound 0.316 µM, first compound 0.00949 µM) of the same compound?
Its viability, T/C is 36%.

What about the viability, T/C (second compound 0.316 µM, first compound 0.03 µM) of the same compound?
The viability, T/C was 32.6%.

What about the viability, T/C (second compound 0.316 µM, first compound 0.0949 µM) of the same compound?
Its viability, T/C is 34.1%.

What about the viability, T/C (second compound 0.316 µM, first compound 0.3 µM) of the same compound?
Its viability, T/C is 34.1%.

What about the viability, T/C (second compound 1 µM, first compound 0.000949 µM) of the same compound?
Its viability, T/C is 22.6%.

And the viability, T/C (second compound 1 µM, first compound 0.003 µM)?
The viability, T/C was 21.8%.

What about the viability, T/C (second compound 1 µM, first compound 0.00949 µM) of the same compound?
Its viability, T/C is 23.2%.

What about the viability, T/C (second compound 1 µM, first compound 0.03 µM) of the same compound?
The viability, T/C was 21.7%.

And the viability, T/C (second compound 1 µM, first compound 0.0949 µM)?
Its viability, T/C is 23%.

What about the viability, T/C (second compound 1 µM, first compound 0.3 µM) of the same compound?
The viability, T/C was 25.2%.

And the viability, T/C (second compound 3.16 µM, first compound 0.000949 µM)?
Its viability, T/C is 15.2%.

And the viability, T/C (second compound 3.16 µM, first compound 0.003 µM)?
The viability, T/C was 12.6%.

What about the viability, T/C (second compound 3.16 µM, first compound 0.00949 µM) of the same compound?
The viability, T/C was 13.6%.

And the viability, T/C (second compound 3.16 µM, first compound 0.03 µM)?
Its viability, T/C is 15.4%.

And the viability, T/C (second compound 3.16 µM, first compound 0.0949 µM)?
The viability, T/C was 16%.

And the viability, T/C (second compound 3.16 µM, first compound 0.3 µM)?
Its viability, T/C is 15.3%.

And the viability, T/C (second compound 10 µM, first compound 0.000949 µM)?
The viability, T/C was 9.1%.

What about the viability, T/C (second compound 10 µM, first compound 0.003 µM) of the same compound?
The viability, T/C was 8.15%.

And the viability, T/C (second compound 10 µM, first compound 0.00949 µM)?
Its viability, T/C is 8.73%.

What about the viability, T/C (second compound 10 µM, first compound 0.03 µM) of the same compound?
Its viability, T/C is 8.94%.

What about the viability, T/C (second compound 10 µM, first compound 0.0949 µM) of the same compound?
The viability, T/C was 9.91%.

What about the viability, T/C (second compound 10 µM, first compound 0.3 µM) of the same compound?
Its viability, T/C is 8.26%.
